{
  "source": "patent US20090215036A1",
  "about": "“Genetic Alterations Useful For The Response Prediction of Malignant Neoplasia to Taxane-Based Medical Treatments” (Bayer HealthCare AG, priority 2004, published 2009)",
  "key": {"breast cancer patients [1]": {"system": "breast cancer patients", "test": "Kaplan-Meier disease free survival of the two therapy arms (E-T-CMF vs. E-CMF) in respect to gene amplifications", "procedure": "These samples were formalin-fixed and paraffin-embedded material from primary tumours. A detailed clinical report about all patients was available. The anonymized data included all medical, therapeutical, clinical, histo- and pathological, and follow-up information incl. relapse or survival time.\nMore than 60 genes were analyzed according to the method disclosed in examples 1 and 2 by quantitative PCR after nucleic acid extraction from formaldehyde-fixed, paraffin-embedded tissue slides. Alterations of the analyzed genes were determined by comparison with at least two reference genes. Reference genes included mainly MMP28 and HNRPDL, but also HBB, B2M, SOD2. […] The reference genes should be independent from the ARCHEON alterations occurring in the neoplastic lesions and should not be affected by chromosomal alterations such as amplifications and deletions. […] By measuring genes located on the X-chromosome (e.g. SRY), the Y-chromosome (e.g. Xist) and on chromosome 21, defined copy numbers of 1, 2 and 3 genes could be determined as internal control during each run for standardization. […] The calculated performance differences were used as a filter for the measurements within the target tissues, i.e. primer/probe differences of each individual gene as depicted in the control cells and tissues were subtracted from each individual gene measurement performed in the target tissue. […]"}, "breast cancer patients [2]": {"system": "breast cancer patients", "test": "Bivariate DNA and/or RNA marker combinations, +Taxol arm vs. -Taxol arm, quadrant analysis with Kaplan-Meier plots", "conditions": "GR3 + 4"}},
  "data": [
    {"smiles": "CC(=O)O[C@H]1C(=O)[C@@]2(C)[C@H]([C@H](OC(=O)c3ccccc3)[C@]3(O)C[C@H](OC(=O)[C@H](O)[C@@H](NC(=O)c4ccccc4)c4ccccc4)C(C)=C1C3(C)C)[C@]1(OC(C)=O)CO[C@@H]1C[C@@H]2O", "note": "[Taxol]", "values": [
      {"measurement": "outcome of Taxol therapy in patients with gene amplification", "setting": "breast cancer patients [1]; FIGS. 2a-c, ErbB4 and VEGF amplified, alone or as a marker set of two genes", "result": "benefit from Taxol therapy"},
      {"measurement": "correlation of gene amplification to Taxol resistance", "setting": "breast cancer patients [1]; TRAG3 amplification", "result": "no strong correlation"},
      {"measurement": "Benefit", "setting": "breast cancer patients [2]; ABCG2_R thr 11.0 / SIVA_D thr 1.3, Quadrant LH", "result": "OUT: Always beneficial"},
      {"measurement": "Benefit", "setting": "breast cancer patients [2]; AFP_R thr −2.2 / EMS1_R thr 18.9, Quadrant HL", "result": "OUT: Taxol beneficial"},
      {"measurement": "Benefit", "setting": "breast cancer patients [2]; AFP_R thr −2.2 / FLT1_D thr 3.3, Quadrant HL", "result": "OUT: Taxol beneficial"},
      {"measurement": "Benefit", "setting": "breast cancer patients [2]; AFP_R thr −2.2 / TRAG3_D thr 1.2, Quadrant HH", "result": "OUT: Taxol beneficial"},
      {"measurement": "Benefit", "setting": "breast cancer patients [2]; AFP_R thr −2.2 / TWIST1_D thr 1.1, Quadrant HH", "result": "OUT: Taxol beneficial"},
      {"measurement": "Benefit", "setting": "breast cancer patients [2]; AFP_R thr −2.5 / ISGF3G_D thr 3.7, Quadrant HL", "result": "OUT: Taxol beneficial"},
      {"measurement": "Benefit", "setting": "breast cancer patients [2]; BUB3_D thr 2.0 / MST1_D thr 2.1, Quadrant HH", "result": "OUT: Always beneficial"},
      {"measurement": "Benefit", "setting": "breast cancer patients [2]; CCNE2_R thr 13.4 / MST1_D thr 2.0, Quadrant LL", "result": "IN: Always beneficial"},
      {"measurement": "Benefit", "setting": "breast cancer patients [2]; CIDEB_R thr 13.7 / ERBB3_R thr 14.7, Quadrant LH", "result": "IN: Taxol beneficial"},
      {"measurement": "Benefit", "setting": "breast cancer patients [2]; CIDEB_R thr 13.7 / RIN1_D thr 2.1, Quadrant LL", "result": "IN: Taxol beneficial"},
      {"measurement": "Benefit", "setting": "breast cancer patients [2]; EMS1_R thr 15.9 / RIN1_D thr 2.1, Quadrant HL", "result": "IN: Taxol beneficial"},
      {"measurement": "Benefit", "setting": "breast cancer patients [2]; EMS1_R thr 16.9 / ERBB3_R thr 14.7, Quadrant HH", "result": "IN: Taxol beneficial"},
      {"measurement": "Benefit", "setting": "breast cancer patients [2]; ERBB3_R thr 14.7 / BRMS1_D thr 4.6, Quadrant HL", "result": "IN: Taxol beneficial"},
      {"measurement": "Benefit", "setting": "breast cancer patients [2]; ERBB3_R thr 14.7 / MUC1_D thr 2.6, Quadrant HL", "result": "IN: Taxol beneficial"},
      {"measurement": "Benefit", "setting": "breast cancer patients [2]; ERBB3_R thr 14.7 / VEGF_D thr 3.9, Quadrant HL", "result": "IN: Taxol beneficial"},
      {"measurement": "Benefit", "setting": "breast cancer patients [2]; ESR1_R thr 12.3 / CA9_R thr 1.4, Quadrant HH", "result": "OUT: Taxol beneficial"},
      {"measurement": "Benefit", "setting": "breast cancer patients [2]; FNTA_R thr 11.9 / ERBB2_D thr 1.8, Quadrant HH", "result": "OUT: Always beneficial"},
      {"measurement": "Benefit", "setting": "breast cancer patients [2]; FolR2_D thr 2.9 / VEGF_D thr 2.6, Quadrant HL", "result": "IN: Taxol beneficial"},
      {"measurement": "Benefit", "setting": "breast cancer patients [2]; GSTP1_D thr 2.2 / ING1L_D thr 1.6, Quadrant LH", "result": "OUT: Always beneficial"},
      {"measurement": "Benefit", "setting": "breast cancer patients [2]; GSTP1_D thr 2.4 / MST1_D thr 2.1, Quadrant LH", "result": "OUT: Always beneficial"},
      {"measurement": "Benefit", "setting": "breast cancer patients [2]; KISS I_D thr 1.3 / ERBB2_D thr 1.8, Quadrant HH", "result": "OUT: Always beneficial"},
      {"measurement": "Benefit", "setting": "breast cancer patients [2]; MYC2_D thr 2.1 / ERBB3_R thr 14.4, Quadrant HH", "result": "IN: Taxol beneficial"},
      {"measurement": "Benefit", "setting": "breast cancer patients [2]; MYC2_D thr 2.2 / CASP10_D thr 2.2, Quadrant HL", "result": "IN: Taxol beneficial"},
      {"measurement": "Benefit", "setting": "breast cancer patients [2]; PGR_R thr 9.1 / RIN1_D thr 2.1, Quadrant HL", "result": "IN: Taxol beneficial"},
      {"measurement": "Benefit", "setting": "breast cancer patients [2]; PGR_R thr 14.3 / ERBB3_R thr 14.7, Quadrant LH", "result": "IN: Taxol beneficial"},
      {"measurement": "Benefit", "setting": "breast cancer patients [2]; PVT1_D thr 1.3 / RIN1_D thr 2.1, Quadrant HL", "result": "IN: Taxol beneficial"},
      {"measurement": "Benefit", "setting": "breast cancer patients [2]; RAD54B_D thr 1.2 / ERBB2_D thr 1.8, Quadrant HH", "result": "OUT: Always beneficial"},
      {"measurement": "Benefit", "setting": "breast cancer patients [2]; RIN1_D thr 2.1 / EMS1_D thr 1.2, Quadrant LH", "result": "IN: Taxol beneficial"},
      {"measurement": "Benefit", "setting": "breast cancer patients [2]; RIN1_D thr 2.1 / VEGF_D thr 1.5, Quadrant LH", "result": "IN: Taxol beneficial"},
      {"measurement": "Benefit", "setting": "breast cancer patients [2]; STAU_R thr 17.6 / FLT1_R thr 3.5, Quadrant LL", "result": "OUT: Taxol beneficial"},
      {"measurement": "Benefit", "setting": "breast cancer patients [2]; TONDO_R thr 12.2 / ErbB4_D thr 2.2, Quadrant LH", "result": "IN: Taxol beneficial"},
      {"measurement": "Benefit", "setting": "breast cancer patients [2]; VEGFa_R thr 13.0 / BOP1_D thr 2.0, Quadrant HH", "result": "OUT: Always beneficial"},
      {"measurement": "Benefit", "setting": "breast cancer patients [2]; VEGFa_R thr 14.1 / AFP_R thr −1.0, Quadrant LH", "result": "IN: Always beneficial"}
    ]}
  ]
}
